Assay [1] in a line: Endotoxin binding: competitive displacement of BODIPY TR-Cadaverine from LPS. On the set-up: species or system Escherichia coli. The following applies: 5 μM peptide, 10 μM BC, 10 μg/mL LPS, low ionic-strength 10 mM Na-PO4. On the procedure:
FIGS. 2A-2B are graphs showing endotoxin binding. The figures depict the competitive displacement of BC from LPS/LTA by the peptides. 5 μM of each peptide was incubated with 10 μM BC and 10 μg/mL LPS from E. coli (0111:B4) or LTA from S. aureus. Fluorescence intensity was measured at excitation=580 nm and emission=620 nm. 10 μM BC without endotoxin was used as 100% displacement while 10 μM BC with 10 μg/mL LPS/LTA without any peptide as 0% displacement and the % displacement of BC by each peptide was calculated accordingly. […] had been used as a positive control. The horizontal dotted line coincides with the % displacement of BC by ATRA1 on the y-axis.
FIGS. 6A-6B are graphs showing endotoxin (LPS (FIG. 6A) and LTA (FIG. 6B)) binding. Competitive displacement of BC from LPS/LTA. In each case, 5 μM peptide was incubated with 10 μM BC and 10 μg/mL LPS from E. coli (0111:B4) or LTA from S. aureus. Fluorescence intensity was measured using excitation=580 nm and emission=620 nm. As a positive control 10 μM BC without endotoxin was used as a reference for 100% displacement while 10 μM BC with 10 μg/mL LPS/LTA without any peptide as a negative control and a reference for 0% displacement. These controls were used to calculate % BC displacement for each peptide.
Endotoxin Binding. The binding of endotoxin (LPS/LTA) was evaluated using a fluorogenic conjugateBODIPY TR-Cadaverine (BC). BC binds endotoxin loses its fluorescence. The peptide competitively displaces BC from endotoxin and the fluorescence is reestablished. Competitive inhibition of endotoxin-BC binding was utilized due to presence of peptides already in complexion with endotoxin. 25 μL of 20 μM of peptides in 10 mM Na—PO4 buffer were incubated with 25 μL of LPS (40 μg/mL) or LTA (40 μg/mL) for 15 min and then added with 50 μL of BC (20 uM). Peptides bind to LPS or LTA and competitively prevents BC bind to the endotoxin. BC loses its fluorescence on binding to endotoxin. The fluorescence intensity of the unbound BC was measured at excitation=580 nm and emission=620 nm.
BC contains two functional moieties: BODIPY (boron-dipyrromethene) and cadaverine connected via a carboxamide. BODIPY is the fluorophore of BC and fluoresces in the free state in solution but loses fluorescence when bound to LPS/LTA. The competitive displacement of BC from LPS/LTA by AMPs and thus regeneration of the fluorescence has frequently been used to estimate the binding strength of AMPs with LPS/LTA. In the present studies, 5 μM of each peptide was used to displace BC from LPS/LTA. […] Such observation contradicts the initial assumption that substitution of Lys with arginine would result in increased efficiency of LPS binding. However, with sequential substitutions of Lys with arginine, starting with ATRA1-AR, peptide variants show increased LPS binding with each additional arginine substitution. In terms of LPS binding: ATRA1-AR<ATRA1-AR2<ATRA1-AR3. In ATRA1-R3, the lysine residues at 9th, 5th and 1st positions of ATRA1 were substituted with arginine. In ATRA1-R6 all of the lysine residues were replaced with arginine.

The test system of assay [2] is E. coli ATCC 25922. As to the kind of experiment: Antimicrobial efficacy (resazurin virtual colony count). Format: cell-based, Escherichia coli. The following applies: pH 7.4. The method, then:
Antimicrobial Studies. The phosphate buffers used for antimicrobial assays were supplemented with non-nitrogenous energy source, 0.1% (w/v) glucose. To conduct antimicrobial assays, bacterial strains were first suspended in respective buffers. E. coli (ATCC 25922) and B. cereus (ATCC 11778) were grown in MHB II up to OD600 nm˜1 and stored as frozen stock in 20% glycerol at −80° C. Occasionally they were thawed and enumerated by serial dilution and spreading on MHB II agar plates. The concentrations of the frozen stocks of E. coli and B. cereus strains were 1.0-1.1*10^8 CFU/mL with OD600 nm˜0.8. In case of other bacterial strains, they were grown on the days of experiment up to OD600 nm˜1-1.5 and then adjusted to OD600 nm˜0.8. The growth media of the drug-resistant bacterial strains were supplemented with few of the respective antibiotics against which they are resistant. 200 μL of the 0.8 OD600 nm culture were added to 10 mL of the respective buffer to obtain a suspension which was used to incubate with equal volumes of peptide solution in the same buffer.
Antimicrobial assays in different phosphate buffers and serum were conducted by adapting, with necessary modifications a fast high-throughput method based on Virtual Colony Count technique and later modified by incorporating the use of resazurin. At first serial dilution of a microbial strain in respective buffer was poured in the wells of 96 well polypropylene microplate and was then added with same volume of 2× MHB II supplemented with 80 μg/mL resazurin and incubated at 35° C. in a Gemini EM Microplate Reader (Molecular Devices) overnight with intermittent shaking. As the microbe grows it reduces non-fluorescent resazurin to fluorescent resorufin and the fluorescent intensity of each well were measured (excitation=570 nm, emission=590 nm) each 5 min for 15 hours. The time (t, min) to reach a certain fluorescence (RFU=20000 with respect to the starting fluorescence) was correlated with the initial bacterial concentration (in CFU/mL) in the particular well to obtain a calibration plot of the form: Log([Bacteria],CFU/mL)=b+m*t Equation 4: […]
To obtain antimicrobial efficacy of the peptides, 50 μL of serially diluted peptide in a buffer was incubated with 50 μL microbial suspension in the same buffer for 3 hours in black polypropylene 96 well plate. After incubation the wells were added with 100 μL of 2× MHB II supplemented with 80 μg/mL resazurin and then incubated with continuous fluorescence reading for overnight time period as described earlier. The surviving microbial population (CFU/mL) in each well were calculated by first finding the time to reach a fluorescence of RFU=20000 and the correlation (4) for the specific microbial strain and buffer. % Survival represents the proportion of viable cells in peptide treated cells relative to cells treated with the respective buffer alone. Equation 5: […]
Finally, the antimicrobial effectiveness of each peptide against the particular microbial strain in the specific buffer was determined by plotting % microbial survival as a function of the log of the concentration of the peptide and fitting the resulting data to a variable-slope sigmoidal regression model (equation 6). In this equation, log(EC50) represents the log of the concentration of the peptide required to kill half of the microbial population, where Smin and Smax correspond to the minimal and maximal microbial survival values (respectively), and H, Hill slope, is the parameter defining the steepness of the transition slopes of sigmoidal survival curves. % Microbial survival=Smin+(Smax−Smin)/(1+10^log(EC^50^)-log[peptide]*H) Equation 6: […]
The antimicrobial efficacies of the peptides were first tested against the model Gram-negative bacteria, E. coli ATCC 25922, in different phosphate buffers having varied ionic strengths and compositions. The phosphate buffers that were used included 10 mM sodium phosphate (calculated ionic strength˜25 mM), PBS and DPBS. […]
Background: The colour change of resazurin is a common sign of viable cells or microbes.

The subject of assay [3] is E. coli ML35p outer membrane. As to the kind of experiment: NPN assay, outer membrane perturbation. It counts as cell-based, Escherichia coli. The following applies: DPBS; 25 μM peptide; 25 μM PMB = 100%. On the procedure: (§1) Interactions with Bacterial Membranes. Interaction of the peptides with bacterial membranes in different phosphate buffers were evaluated using E. coli ML35p, constructed in our laboratory. At first, competent cells of E. coli ML35 were produced by conventional competent cell preparation method, then transformed with pBR322 plasmid. Transformed colonies were selected after growing on Luria-agar containing 50 μg/mL ampicillin. A single transformed colony was grown in presence of ampicillin first in Luria broth and then in MHBII and stored as 20% glycerol stock at −80° C. This frozen stock, on the day of the experiment, was thawed and grown in MHBII containing ampicillin up to OD600 nm=0.8-0.9, washed with PBS and then suspended in the respective buffer up to the required OD600 nm for use.
NPN Assay. The outer membrane perturbation of bacteria was evaluated by incubating E. coli ML35p with peptides in presence of NPN. 100 mM NPN in acetone was supplemented proportionately to a bacterial suspension of OD600 nm˜0.5 to achieve a final concentration of 20 μM of NPN and the mixture was equilibrated for 30 mins. Then, 90 μL of the bacterial suspension containing 20 μM NPN was added with 10 μL of 250 μM peptide (10×) solution in water and scanned for fluorescence intensity (excitation=350 nm, emission=420 nm). The % Perturbation was calculated by considering PMB to be causing 100% Perturbation and water (without peptide) as 0% Perturbation. Each peptide was tested in triplicate in each of the three phosphate buffers used.
When peptides partition from the bulk aqueous environment to the cellular membranes, they may cause small defects in the membrane organization, a signature of adsorption of the peptides into the membranes. Such small defects are called membrane perturbations and can be evaluated by utilizing molecular probes. One such molecular probe is NPN, which is a hydrophobic molecule and is usually repelled to enter the hydrophobic interiors of the membrane by the polar headgroups of membrane-lipids. However, when small defects and gaps are caused during the adsorption of the peptides into the membranes, NPN can enter through those defects and in the hydrophobic environment of the membrane interior the molecule fluoresces, which can be measured for quantification of the extent of membrane-perturbation and peptide adsorption in the cellular membrane.

In assay [4] the test system is E. coli ML35p outer membrane. As to the kind of experiment: Outer membrane disruption (β-lactamase leakage, nitrocefin). It counts as cell-based, Escherichia coli. The following applies: DPBS. On the procedure:
as §1
Membrane Disruptions. The outer and the inner membrane disruptions by the peptides were evaluated by incubating bacterial suspension with peptides and then measuring the activity of enzymes leaked out of the cells. 100 μL of 10× concentration of peptide in water was incubated with 900 μL bacterial suspension (OD600 nm˜0.1) in respective buffer for 3 hours at room temperature with gentle rotation. Then the cells and debris were separated by centrifugation (10000 r.p.m. for 30 mins) and the supernatant was collected and tested for activity of enzymes that had leaked out of the bacterial cells. HCMAB was used as a positive control to cause 100% membrane disruption and water as a negative causing 0% disruption.
The outer membrane disruption was tested by using the activity of beta-lactamase present in the periplasmic space of E. coli ML35p. Peptides when disrupt the outer membrane enough to cause beta-lactamase to come out, the degree of disruption can be measured by the virtue of the kinetics of the enzyme and using a chromogenic cephalosporin substrate called nitrocefin. β-lactamase mediated hydrolyzed product of nitrocefin has an absorbance αmax=486 nm. Supernatant collected from the incubation of peptide with bacteria was added with nitrocefin solution in DPBS and incubated at 35° C. and continuous absorbance readings. The slope of the linear section of the absorbance curve (absorbance vs time), was used as a measure of membrane disruption and the % Disruption was calculated as: Equation 7: […]
Some of the ATRA1-variants were further tested for their ability to disrupt outer and inner membranes to form pores or disruptions sufficiently large so as to allow enzymes to leak out of their cellular compartments (cytoplasm or periplasmic space). For this purpose, two reporter molecules were used with one being the substrate of a cytoplasmic enzyme and the other was a substrate for an enzyme residing in the periplasmic space. One of the reporters, nitrocefin was the substrate for β-lactamase, which is present in the bacterial periplasm, whereas the other molecule, ONPG, was the substrate for β-galactosidase, which resides in the cytoplasm of E. coli ML35p strain. […] Similarly, β-galactosidase activity in the supernatants is evidence of inner membrane disruption and possible pore formation. When the aforesaid supernatants were tested for nitrocefin and ONPG hydrolysis, the corresponding absorbance increased with time (data not shown) indicating β-lactamase and β-galactosidase activity, respectively, and thus disruption of both the inner and outer membranes. The slopes of the increase in absorbance as a function of time provides the rate of enzyme activity. The enzyme activities in supernatants collected after incubation of bacteria with the quaternary ammonium surfactant, hexadecyltrimethylammonium bromide (HCMAB) was used as an internal reference for 100% membrane disruption. Enzyme activity for supernatants collected for cells incubated in the absence of peptide provided a reference for 0% membrane disruption. Bee venom peptide melittin was used as a positive control. […]

Where [5] appears, read: PBS (high / physiologically relevant ionic strength).

Consider four sequences from US11447533B2, “Antimicrobial and anticancer peptides and conjugates and compositions, methods, articles and kits relating thereto” (George Mason Research Foundation, Inc., priority 2018, dated 2022).

Consider KRAKRFFKRLK (SEQ ID NO: 7) [ATRA1-AR2], for which, in assay [1], the “LPS binding (BC displacement), in words” value is “ATRA1-AR<ATRA1-AR2<ATRA1-AR3”. The “antimicrobial efficacy, in words” value in assay [2] (DPBS (with Ca++ and Mg++)) was “lose activity in DPBS”; in assay [2] (setting [5]), “more potent than ATRA1-A”.
On to KRWKKFFKKWK (SEQ ID NO: 12) [ATRA1-W2], for which the “membrane perturbation with respect to PMB” value in assay [3] is “higher OM perturbation than ATRA1”.
As for KRWKKWFKKWK (SEQ ID NO: 13) [ATRA1-W3], the “time to reach maximum signal for nitrocefin hydrolysis” value in assay [4] is given as “approximately 30 mins”. In assay [3], the “membrane perturbation with respect to PMB” value is “higher OM perturbation than ATRA1”.
Turning to RRAKRFFKRLK (SEQ ID NO: 8) [ATRA1-AR3], the “LPS binding (BC displacement), in words” value in assay [1] is recorded as “ATRA1-AR<ATRA1-AR2<ATRA1-AR3”. The “antimicrobial efficacy, in words” value is “lose activity in DPBS” in assay [2] (DPBS (with Ca++ and Mg++)); “greater effectiveness than both ATRA1-A and ATRA1” in assay [2] (setting [5]).
